In ChEMBL document CHEMBL1938362, “Synthesis and properties of molecular probes for the rescue site on mutant cystic fibrosis transmembrane conductance regulator” (J Med Chem, 2011) one finds Activity data, which are given here for six compounds.

Assay [1] concerns BHK. The assay is described as follows: Modulation of CFTR F508 deletion mutant expressed in BHK cells assessed as increase in forskolin-stimulated iodine influx at 10 uM after 5 mins […] (reference value: 1.4 +/- 0.4 nM/s). It counts as cell-based. A general note: The patch-clamp technique gives a direct electrical read-out from membranes.
The test system of assay [2] is Cystic fibrosis transmembrane conductance regulator (Homo sapiens), P13569 [G551D]. The assay is described as follows: Modulation of C-terminal His10-tagged CFTR G551D mutant in liposomes of egg phosphatidylcholine assessed as increase in iodine influx at 10 uM after 5 mins […] in presence of protein kinase A and valinomycin relative to control.
Chain of Cystic fibrosis transmembrane conductance regulator (Homo sapiens), P13569 [G551D] (P13569 whole entry G551D): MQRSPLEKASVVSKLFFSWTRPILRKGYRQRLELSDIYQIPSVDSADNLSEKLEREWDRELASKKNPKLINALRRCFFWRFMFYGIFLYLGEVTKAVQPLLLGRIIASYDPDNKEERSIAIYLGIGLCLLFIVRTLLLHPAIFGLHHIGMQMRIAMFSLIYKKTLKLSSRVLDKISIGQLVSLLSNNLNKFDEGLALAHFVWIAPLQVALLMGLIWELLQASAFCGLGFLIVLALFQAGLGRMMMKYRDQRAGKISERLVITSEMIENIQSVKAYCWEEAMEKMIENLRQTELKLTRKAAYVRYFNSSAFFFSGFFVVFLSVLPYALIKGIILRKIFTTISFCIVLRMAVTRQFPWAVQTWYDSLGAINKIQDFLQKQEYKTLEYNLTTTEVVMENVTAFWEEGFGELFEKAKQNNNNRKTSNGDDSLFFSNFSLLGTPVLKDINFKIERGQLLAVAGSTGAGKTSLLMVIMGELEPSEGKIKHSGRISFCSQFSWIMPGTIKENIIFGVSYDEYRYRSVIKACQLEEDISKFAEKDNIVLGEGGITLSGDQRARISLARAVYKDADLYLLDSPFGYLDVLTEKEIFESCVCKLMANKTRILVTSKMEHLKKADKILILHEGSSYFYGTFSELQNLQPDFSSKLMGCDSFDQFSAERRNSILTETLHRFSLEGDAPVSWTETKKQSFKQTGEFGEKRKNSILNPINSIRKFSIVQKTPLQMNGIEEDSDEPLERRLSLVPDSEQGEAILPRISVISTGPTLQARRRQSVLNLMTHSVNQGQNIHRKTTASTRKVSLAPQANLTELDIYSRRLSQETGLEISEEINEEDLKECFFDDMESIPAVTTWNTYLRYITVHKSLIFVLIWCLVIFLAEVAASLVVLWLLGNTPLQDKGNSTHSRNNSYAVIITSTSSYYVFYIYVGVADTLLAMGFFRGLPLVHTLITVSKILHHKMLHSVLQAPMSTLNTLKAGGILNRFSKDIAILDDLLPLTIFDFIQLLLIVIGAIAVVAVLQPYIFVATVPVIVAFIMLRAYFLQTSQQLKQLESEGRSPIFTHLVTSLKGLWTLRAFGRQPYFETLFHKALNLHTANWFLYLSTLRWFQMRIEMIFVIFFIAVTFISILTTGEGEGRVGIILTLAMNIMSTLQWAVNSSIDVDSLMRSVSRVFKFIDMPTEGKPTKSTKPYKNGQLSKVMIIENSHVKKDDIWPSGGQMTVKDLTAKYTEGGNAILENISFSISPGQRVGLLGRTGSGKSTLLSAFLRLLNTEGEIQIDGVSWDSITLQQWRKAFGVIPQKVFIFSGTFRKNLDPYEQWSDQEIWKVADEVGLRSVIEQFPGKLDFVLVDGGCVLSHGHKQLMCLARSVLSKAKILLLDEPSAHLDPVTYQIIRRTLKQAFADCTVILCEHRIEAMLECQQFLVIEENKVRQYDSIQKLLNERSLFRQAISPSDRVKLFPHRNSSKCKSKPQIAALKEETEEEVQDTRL

In the case of `Cc1ccc(O)c(-c2cc(-c3ccc(N)cc3)[nH]n2)c1`, the Activity in assay [1] was determined as 5.1 nM/s.

In the case of `Cc1ccc(O)c(-c2cc(-c3ccc(I)cc3)[nH]n2)c1`, the Activity in assay [1] is 5.1 nM/s.

Consider `Cc1ccc(O)c(-c2cc(-c3ccc([N+](=O)[O-])cc3)[nH]n2)c1`, for which the Activity in assay [1] amounted to 5.1 nM/s.

As for `Cc1ccc(O)c(-c2cc(-c3ccc(N=[N+]=[N-])cc3)[nH]n2)c1`, the Activity in assay [1] is 5.1 nM/s.

`Cc1ccc(O)c(-c2cc(-c3ccc(C#CCNS(=O)(=O)c4cccc5c(N(C)C)cccc45)cc3)[nH]n2)c1`: the Activity turned out to be 1.7 nM/s in assay [1] and 11.2 nM/s in assay [2].

As for `Cc1ccc(O)c(-c2cc(-c3ccccc3)[nH]n2)c1`, the Activity in assay [1] was determined as 9.9 nM/s; in assay [2] it was 16.9 nM/s.
